# Like-named read-outs stand apart in the source and are kept apart here.
# Assays:
# [1] = system: MDR1-MDCK cell monolayers; conditions: dog, MDCK-MDR1, 120 min, 5 μM, pH 7.4
# SMN FL and SMN Δ7 = experiment: Quantitative splicing assay (SMN) in SMA patient fibroblasts (GM03813); format: cell-based; conditions: Homo sapiens, Fibroblast, read-out: SMN2 Splicing FL EC50 (nM)*
# Experimental: Spinal muscular atrophy (SMA) patient fibroblasts (GM03813, Coriell) are plated in 96-well plates at 50,000 cells/well. […] Treated cells are lysed and cDNA synthesized using the Fast Advanced Cells-to-Ct kit (Thermofisher A35378) according to the manufacturer's instructions. 2 μL of each cDNA are used in qPCR reactions. […] Reactions are run in a Quant Studio 6 qPCR instrument with default settings.
# SMN protein = SMN protein assay (MSD) in SMA patient fibroblasts (GM03813); format: cell-based, human
# Procedure, shortened: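 SMA patient fibroblasts GM03813 (7000 cells/well) treated 48 h with compounds from 2.5 μM to 0.6 nM. Lysate SMN protein quantified by MSD immunoassay against an SMN standard curve (1 to 19.5 μg/ml) on each plate, giving absolute amounts.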
# MDR1 = experiment: in vitro; conditions: dog; for Papp A→B at 120 min, 5 μM: MDCK-MDR1, pH 7.4, MDCK-MDR1: Papp A-B (10^−6, cm/s); for Papp B→A at 120 min, 5 μM: MDCK-MDR1, pH 7.4, MDCK-MDR1: Papp B-A (10^−6, cm/s)
# MDR1 (P-gp) = experiment: MDCK-MDR1 permeability assay, blood-brain-barrier penetration potential; conditions: dog, MDCK-MDR1, pH 7.4, MDCK-MDR1 Efflux Ratio
SMILES,MDCK-MDR1: % Recov A-B (%) [1] [%],MDCK-MDR1: % Recov B-A (%) [1] [%],EC50 (SMN FL and SMN Δ7; class symbol) [nM],EC50 (SMN protein) [nM],"Papp A→B at 120 min, 5 μM (MDR1) [×10⁻⁶ cm/s]","Papp B→A at 120 min, 5 μM (MDR1) [×10⁻⁶ cm/s]","efflux ratio at 120 min, 5 μM (MDR1 (P-gp))",EC50 (SMN FL and SMN Δ7; given as number) [nM]
"CN(c1cnc(-c2ccc(-c3cnn(C)c3)cc2O)cn1)[C@@H]1C[C@H]2CCC(N2)[C@@H]1F (single isomer, unassigned) [Compound 3E1]",56,66,101 to 500,16 to 50,8.42,22,3,
"CN(c1cnc(-c2ccc(-c3cnn(C)c3)cc2O)cn1)[C@H]1CC2CC[C@@H](N2)[C@H]1F (single isomer, unassigned) [Compound 3E2]",53,68,101 to 500,16 to 50,9.7,27.1,3,
"CN(c1cnc(-c2ccc(-c3ccn(C)c(=O)c3)cc2O)cn1)[C@H]1CC2CCC[C@@H](N2)[C@H]1F (single isomer, unassigned) [Compound 5E2]",78,82,101 to 500,16 to 50,1.96,43,22,
"CN(c1cnc(-c2ccc(-c3cn[nH]c3)cc2O)cn1)[C@H]1CC2CCC[C@@H](N2)[C@H]1F (single isomer, unassigned) [Compound 6E2]",70,58,16 to 50,0.01 to 15,3.67,22.2,6,
"CN(C)C(=O)c1cc2cc(O)c(-c3cnc(N(C)[C@@H]4C[C@H]5CCC(N5)[C@@H]4F)cn3)cc2o1 (single isomer, unassigned) [Compound 7E1]",91,88,501 to 10000,501 to 10000,1.78,42.4,24,
"CN(C)C(=O)c1cc2cc(O)c(-c3cnc(N(C)[C@H]4CC5CC[C@@H](N5)[C@H]4F)cn3)cc2o1 (single isomer, unassigned) [Compound 7E2]",90,93,501 to 10000,501 to 10000,1.92,59.9,31,
"CN(c1cnc(-c2cc(F)c(-c3ccn(C)c(=O)c3)cc2O)cn1)[C@H]1C[C@@H]2CCCC(N2)[C@H]1F (single isomer, unassigned) [Compound 12E2]",72,88,501 to 10000,16 to 50,2.14,57.4,27,
"CN(c1cnc(-c2cc(F)c(-c3ccn(C)c(=O)c3)cc2O)cn1)[C@H]1C[C@@H]2CCC(N2)[C@H]1F (single isomer, unassigned) [Compound 13E2]",80,87,,0.01 to 15,1.97,40.8,21,398
"CN(c1cnc(-c2ccc(-c3cnn(C)c3)cc2O)cn1)[C@@H]1CC2CC[C@H](N2)[C@@H]1F (single isomer, unassigned) [Compound 16E1]",45,79,501 to 10000,16 to 50,5.62,20.6,4,
"CN(c1cnc(-c2ccc(-c3cnn(C)c3)cc2O)cn1)[C@H]1C[C@@H]2CCC(N2)[C@H]1F (single isomer, unassigned) [Compound 16E2]",54,86,101 to 500,16 to 50,7.68,28.4,4,
"COc1cc(-c2ccc(-c3cnc(N(C)[C@@H]4CC5CC[C@H](N5)[C@@H]4F)cn3)c(O)c2)cnn1 (single isomer, unassigned) [Compound 26E1]",45,74,101 to 500,501 to 10000,5.06,24.4,5,
"COc1cc(-c2ccc(-c3cnc(N(C)[C@H]4C[C@@H]5CCC(N5)[C@H]4F)cn3)c(O)c2)cnn1 (single isomer, unassigned) [Compound 26E2]",41,67,101 to 500,16 to 50,3.16,23.9,8,
"CN(c1cnc(-c2ccc(-c3cn[nH]c3)cc2O)cn1)[C@H]1C[C@@H]2CCC(N2)[C@@H]1F (single isomer, unassigned) [Compound 27E2]",80,85,101 to 500,16 to 50,4.45,40.6,9,
"CNC(=O)/C=C/c1cc(O)c(-c2cnc(N(C)[C@@H]3C[C@@]4(C)CC[C@](C)(N4)[C@@H]3F)cn2)cc1F [Compound 61E1, (E)-3-(2-fluoro-4-(5-(((1S,2R,3R,5R)-2-fluoro-1,5-dimethyl-8-azabicyclo[3.2.1]octan-3-yl)(methyl)amino)pyrazin-2-yl)-5-hydroxyphenyl)-N-methylacrylamide]",86,95,,16 to 50,1.97,57.4,29,
"Cn1cc(-c2ccc(-c3cnc(N(C4CC4)[C@@H]4C[C@@]5(C)CC[C@](C)(N5)[C@@H]4F)cn3)c(O)c2)cn1 [Compound 75E1, 2-(5-(cyclopropyl((1S,2R,3R,5R)-2-fluoro-1,5-dimethyl-8-azabicyclo[3.2.1]octan-3-yl)amino)pyrazin-2-yl)-5-(1-methyl-1H-pyrazol-4-yl)phenol]",40,70,,501 to 10000,2.11,16.1,8,
"Cn1cc(-c2ccc(-c3cnc(N(C4CC4)[C@H]4C[C@]5(C)CC[C@@](C)(N5)[C@H]4F)cn3)c(O)c2)cn1 [Compound 75E2, 2-(5-(cyclopropyl((1R,2S,3S,5S)-2-fluoro-1,5-dimethyl-8-azabicyclo[3.2.1]octan-3-yl)amino)pyrazin-2-yl)-5-(1-methyl-1H-pyrazol-4-yl)phenol]",38,66,,101 to 500,2.39,16.9,7,
"CNC(=O)/C=C/c1cc(O)c(-c2cnc(N(C3CC3)[C@@H]3C[C@@]4(C)CC[C@](C)(N4)[C@@H]3F)cn2)cc1F [Compound 79E1, (E)-3-(4-(5-(cyclopropyl((1S,2R,3R,5R)-2-fluoro-1,5-dimethyl-8-azabicyclo[3.2.1]octan-3-yl)amino)pyrazin-2-yl)-2-fluoro-5-hydroxyphenyl)-N-methylacrylamide]",84,88,,501 to 10000,1.67,45.3,27,
